# Source: patent US8431341B2, “Compositions and methods for the identification of inhibitors of protein synthesis” (priority 2006, dated 2013)
# [5mC] = 5-methylcytosine; m = 2'-O-methyl; r = 2'-OH (RNA)
# Test system: fluorescent peptide that mimics phenylalanine synthetase
# Assay: Binding of yeast tRNAPhe ASL RNA oligomers to a phenylalanine synthetase peptide mimic
# Settings: compared with the native RNA oligomer or the unmodified RNA oligomer; FIG. 2
# Description: A set of experiments was conducted to identify an RNA oligomer substrate to be used in an assay to identify substrates for use in identifying inhibitors of tRNA binding to a phenylalanine synthetase from yeast. A peptide was first identified for use as a phenylalanine synthetase mimic. The peptide was labeled with a fluorescent peptide for use in detection in binding assays.
# A series of RNA oligomer substrates were also synthesized containing modified nucleotides (FIG. 2).
# To determine binding affinity, an assay of ASL for yeast tRNA^phe was prepared varying only in the number of post-transcriptional nucleotide base modifications. This array was probed using a peptide from a phage display library that bound to an ASL containing 3 modifications. The affect of modification on the affinity of a peptide to an RNA substrate-sequence (Sequence A in FIG. 2: 5′-CCAGACUGAAGAUCUGG) (SEQ ID NO: 18) is the primary unmodified yeast ASL^Phe. Sequence B in FIG. 2 (5′-CCAGACmUGm AAGAUm^5CUGG) (SEQ ID NO: 19) is a template ASL sequence indicating the locations of the modified nucleotides for the various combinations of modified nucleotide bases in the mimics of the anticodon stem loop. Sequence C in FIG. 2 (5′-CCAGACmUGmAAm1GAΨm^5CUGG) (SEQ ID NO: 20) is the sequence of the native yeast tRNA^phe. […]
substance,measurement,value
"5′-CCAGACmUGm AAGAUm^5CUGG (CCAGACUGAAGAUCUGG; sugars from the 5' end r5 m1 r1 m1 r9, [5mC] at 14, backbone not given here; listed as Yersinia enterocolitica)",affinity for a fluorescent peptide that mimics phenylalanine synthetase,greater affinity
